From patent US20250289789A1, “REVERSIBLE LYSINE COVALENT MODIFIERS OF CDK2 AND USES THEREOF” (Terremoto Biosciences, Inc., priority 2023, published 2025)
In brackets after ≈: the same amount, converted by molar mass.

Assay: Solubility determination in PBS pH 7.4
Format: physicochemical
Conditions: aqueous buffer, kinetic from dmso stock; PBS pH 7.4, 2 hours, 25° C.; the listed prodrug
Method: Stock solutions (10 mM DMSO, 30 μL) of each sample were placed into 96-well plate, along with 970 μL of PBS pH 7.4 were added into each vial of the cap-less solubility sample plate. The assay was performed in duplicate. A stir stick was added to each well and sealed using a molded PTFE/Silicone plug. Then the Solubility Sample plate was transferred to an Eppendorf Thermomixer Comfort plate shaker and shaken at 1100 RPM for 2 hours at 25° C. After completion the plugs and stir sticks were removed and the samples were transferred into a filter plate and filtered using a vacuum manifold. 5 μL aliquots of filtrate were taken and diluted with 5 μL DMSO and 490 μL of a 1:1 v/v mixture of H2O and acetonitrile. 200 μL of diluent was transferred to a new 96-well plate for LC-MS/MS analysis. The solution was analyzed and quantified against a standard of known concentration in DMSO using LC coupled with Mass spectral peak for identification and quantitation.

Row | solubility at 2 h | SMILES
1 | 215 µM (≈ 108 µg/mL) | COc1cc(O)c(/C=N/C(C)C)c(OCC(=O)Nc2cc([C@H]3CC[C@@H](OC(=O)NC(C)C)C3)[nH]n2)c1 [Compound 64a, (1R,3S)-3-(3-(2-(3-hydroxy-2-((E)-(isopropylimino)methyl)-5-methoxyphenoxy)acetamido)-1H-pyrazol-5-yl)cyclopentyl isopropylcarbamate]
2 | 48 µM (≈ 24 µg/mL) | CC/N=C/c1c(O)cc(OC)cc1OCC(=O)Nc1cc([C@H]2CC[C@@H](OC(=O)NC3(C)CC3)C2)[nH]n1 [Compound 251c, (1R,3S)-3-(3-(2-(2-((E)-(ethylimino)methyl)-3-hydroxy-5-methoxyphenoxy)acetamido)-1H-pyrazol-5-yl)cyclopentyl (1-methylcyclopropyl)carbamate]
3 | 191 µM (≈ 98.5 µg/mL) | COc1cc(O)c(/C=N/C(C)C)c(OCC(=O)Nc2cc([C@H]3CC[C@@H](OC(=O)NC(C)(C)C)C3)[nH]n2)c1 [Compound 128a, (1R,3S)-3-(3-(2-(3-hydroxy-2-((E)-(isopropylimino)methyl)-5-methoxyphenoxy)acetamido)-1H-pyrazol-5-yl)cyclopentyl tert-butylcarbamate]
4 | 6.7 µM (≈ 3.27 µg/mL) | COc1cc(O)c(/C=N/C(C)C)c(OCC(=O)Nc2cc([C@H]3C[C@@H](OC(=O)NC(C)C)C3)[nH]n2)c1 [Compound 223a, (1s,3s)-3-(3-(2-(3-hydroxy-2-((E)-(isopropylimino)methyl)-5-methoxyphenoxy)acetamido)-1H-pyrazol-5-yl)cyclobutyl isopropylcarbamate]
5 | 50 µM (≈ 25.7 µg/mL) | COc1cc(O)c(/C=N/C(C)C)c(OCC(=O)Nc2cc([C@H]3CC[C@@H](OC(=O)NC4(C)CC4)C3)[nH]n2)c1 [Compound 251a, (1R,3S)-3-(3-(2-(3-hydroxy-2-((E)-(isopropylimino)methyl)-5-methoxyphenoxy)acetamido)-1H-pyrazol-5-yl)cyclopentyl (1-methylcyclopropyl)carbamate]
6 | 68 µM (≈ 33.8 µg/mL) | Cc1cc(O)c(/C=N/C(C)C)c(OCC(=O)Nc2cc([C@H]3CC[C@@H](OC(=O)NC4(C)CC4)C3)[nH]n2)c1 [Compound 145a, (1R,3S)-3-(3-(2-(3-hydroxy-2-((E)-(isopropylimino)methyl)-5-methylphenoxy)acetamido)-1H-pyrazol-5-yl)cyclopentyl (1-methylcyclopropyl)carbamate]

Second part, the molecule before the results:

Row | SMILES | solubility at 2 h
7 | COc1cc(O)c(/C=N/CCS(=O)(=O)O)c(OCC(=O)Nc2cc([C@H]3CC[C@@H](OC(=O)NC(C)C)C3)[nH]n2)c1 [Compound 64q, 2-(((E)-2-hydroxy-6-(2-((5-((1S,3R)-3-((isopropylcarbamoyl)oxy)cyclopentyl)-1H-pyrazol-3-yl)amino)-2-oxoethoxy)-4-methoxybenzylidene)amino)ethane-1-sulfonic acid] | 243 µM (≈ 138 µg/mL)
8 | CCC/N=C/c1c(O)cc(OC)cc1OCC(=O)Nc1cc([C@H]2CC[C@@H](OC(=O)NC3(C)CC3)C2)[nH]n1 [Compound 251b, (1R,3S)-3-(3-(2-(3-hydroxy-5-methoxy-2-((E)-(propylimino)methyl)phenoxy)acetamido)-1H-pyrazol-5-yl)cyclopentyl (1-methylcyclopropyl)carbamate] | 41 µM (≈ 21.1 µg/mL)
9 | CCOC(=O)C/N=C/c1c(O)cc(OC)cc1OCC(=O)Nc1cc([C@H]2CC[C@@H](OC(=O)NC(C)C)C2)[nH]n1 [Compound 64p, Ethyl 2-(((E)-2-hydroxy-6-(2-((5-((1S,3R)-3-((isopropylcarbamoyl)oxy)cyclopentyl)-1H-pyrazol-3-yl)amino)-2-oxoethoxy)-4-methoxybenzylidene)amino)acetate] | 4.8 µM (≈ 2.62 µg/mL)
10 | COc1cc(O)c(/C=N/C(C)C)c2c1CC(C(=O)Nc1cc([C@H]3CC[C@@H](OC(=O)N(C)N(C)C)C3)n[nH]1)C2 (single isomer, unassigned) [Compound 284a, (1R,3S)-3-(5-((*)-5-hydroxy-4-((E)-(isopropylimino)methyl)-7-methoxy-2,3-dihydro-1H-indene-2-carboxamido)-1H-pyrazol-3-yl)cyclopentyl 1,2,2-trimethylhydrazine-1-carboxylate] | 253 µM (≈ 133 µg/mL)
